From PMC6018746, “Activation of the p53-MDM4 regulatory axis defines the anti-tumour response to PRMT5 inhibition through its role in regulating cellular splicing” (Scientific Reports, 2018)
Read-outs that look alike come from different tables or passages of the source.

Tested on: panel of 240 cancer cell lines
Test: 10-day growth/death assay (Eurofins panel)
Format: cell-based
Settings: Homo sapiens, read-out: gIC50
Description: To further develop these molecules and to guide clinical strategy, it was necessary to understand sensitivity in preclinical models by assessing the anti-tumour activity of the PRMT5 inhibitors in various cancers. […] Lymphoma, including MCL and diffuse large B-cell lymphoma (DLBCL), breast, and multiple myeloma cell lines were among the most sensitive tumour types and had gIC50 values in the low nM range (Fig. 1B). […] Since lymphoma and breast cancer cell lines were among the most sensitive in the proliferation screens, subsequent mechanistic studies were performed in these tumour types.

O=C(NC[C@H](O)CN1CCc2ccccc2C1)c1ccnc(NC2CCC2)c1 [GSK3203591]
IC50 (22Rv1, 22Rv1): 2480 nM
IC50 (639-V): 342 nM
IC50 (647-V): 62 nM
IC50 (769-P): 203 nM
IC50 (786-0, 786-O): 20.3 nM
IC50 (5637.000): 285 nM
IC50 (A7): 36.7 nM
IC50 (A101D): 190 nM
IC50 (A 172, A172): 29.6 nM
IC50 (A204, A204): 223 nM
IC50 (A498, A498): 50.7 nM
IC50 (A549, A549): 80.9 nM
IC50 (A673, A-673): 119 nM
IC50 (A-375, A375): 79.6 nM
IC50 (A-431, A431): 549 nM
IC50 (ACHN): 38.6 nM
IC50 (AGS): 2030 nM
IC50 (AN3-CA, AN3 CA): 254 nM
IC50 (ARH-77, ARH-77): 44.4 nM
IC50 (ASPC1, AsPC-1): 302 nM
IC50 (AU565, AU565): 14.6 nM
IC50 (BC1, BC-1): 69.6 nM
IC50 (BE(2)-C, BE(2)C): 803 nM
IC50 (BFTC-905, BFTC-905): 259 nM
IC50 (BPH-1, BPH1): 718 nM
IC50 (BT-20, BT20): 2280 nM
IC50 (BT-474, BT474): 172 nM
IC50 (BT-549, BT-549): 59.4 nM
IC50 (BV-173, BV-173): 10.6 nM
IC50 (BXPC-3, BxPC-3): 160 nM
IC50 (BeWo): 1090 nM
IC50 (C32, C32): 14.1 nM
IC50 (C-4-II, C-4 II): 266 nM
IC50 (C-4I): 139 nM
IC50 (C-33-A, C-33A): 228 nM
IC50 (CAKI-1, Caki-1): 68.8 nM
IC50 (CAKI-2, Caki-2): 114 nM
IC50 (CAL-27, Cal 27): 103 nM
IC50 (CAL-62, CAL-62): 253 nM
IC50 (CAMA-1, CAMA-1): 78.9 nM
IC50 (CAPAN-1, Capan-1): 370 nM
IC50 (CCF-STTG1, CCF-STTG1): 115 nM
IC50 (CCRF-CEM, CCRFCEM): 3140 nM
IC50 (CEM/C1, CEM-C1): 7.92 nM
IC50 (CFPAC-1, CFPAC-1): 52.3 nM
IC50 (CGTH-W-1, CGTH-W-1): 82.2 nM
IC50 (CHL-1, CHL-1): 247 nM
IC50 (CHP-212, CHP-212): 24 nM
IC50 (CML-T1, CML-T1): 16.1 nM
IC50 (COLO 201, Colo 201): 49.6 nM
IC50 (COLO 205, Colo 205): > 10000 nM
IC50 (COLO 320DM): 82.5 nM
IC50 (COLO-320-HSR, Colo 320 HSR): 80.3 nM
IC50 (COLO-829, COLO 829): 54.4 nM
IC50 (COR-L23, COR-L23): 147 nM
IC50 (COR-L105, COR-L105): 314 nM
IC50 (CRO-AP2, CRO-AP2): 250 nM
IC50 (Calu-1, Calu1): 3050 nM
IC50 (Caov-3, CaOV3): 298 nM
IC50 (Capan-2, Capan-2): 69.7 nM
IC50 (ChaGo-K-1, ChaGoK1): 1190 nM
IC50 (D283 Med): 23.5 nM
IC50 (DB): 2.51 nM
IC50 (DBTRG-05MG): 156 nM
IC50 (DK-MG): 89.5 nM
IC50 (DLD-1, DLD-1): 134 nM
IC50 (DMS-114, DMS114): 1010 nM
IC50 (DOHH-2, DOHH-2): 157 nM
IC50 (Daoy): 270 nM
IC50 (Daudi): 142 nM
IC50 (Detroit 562, Detroit 562): 104 nM
IC50 (DoTc2-4510, DoTc2 4510): 95.8 nM
IC50 (EB-3, EB-3): 299 nM
IC50 (EFM-19, EFM-19): 69.5 nM
IC50 (EM-2, EM-2): 94 nM
IC50 (ES-2, ES-2): 106 nM
IC50 (FaDu): 15.4 nM
IC50 (G-401, G-401): 38.4 nM
IC50 (G-402, G-402): 99.7 nM
IC50 (H4): 151 nM
IC50 (HCT-8, HCT-8): 430 nM
IC50 (HCT-15, HCT-15): 68.4 nM
IC50 (HCT-116, HCT-116): 166 nM
IC50 (HEC-1-A): 2440 nM
IC50 (HEL 92.1.7, HEL-92-1-7): 9.02 nM
IC50 (HLE): 174 nM
IC50 (HLF): 87.7 nM
IC50 (HMCB): 666 nM
IC50 (HOS): 223 nM
IC50 (HPAF-II): 154 nM
IC50 (HT1197, HT-1197): 98.9 nM
IC50 (HT-3, HT-3): > 10000 nM
IC50 (HT-29, HT-29): 95.2 nM
IC50 (HT-1080, HT-1080): 53.5 nM
IC50 (HT-1376, HT1376): 297 nM
IC50 (HT): 206 nM
IC50 (HUH-6-clone5, HUH-6 Clone 5): 361 nM
IC50 (HeLa): 230 nM
IC50 (HepG2, HepG2): 214 nM
IC50 (Hs 294T): 12.3 nM
IC50 (Hs 695T): 602 nM
IC50 (Hs746T, HS 746T): 171 nM
IC50 (Hs766T): 1120 nM
IC50 (Hs-578T, Hs 578T): 947 nM
IC50 (HuCCT-1, HuCCT1): 225 nM
IC50 (HuP-T4, HuP-T4): 84.9 nM
IC50 (J82, J82): 83.1 nM
IC50 (J-RT3-T3-5, J-RT3-T3-5): 43.2 nM
IC50 (JAR): 485 nM
IC50 (JEG-3, JEG-3): 216 nM
IC50 (Jurkat): 130 nM
IC50 (K562, K562): 146 nM
IC50 (KATO III): 16.7 nM
IC50 (KHOS-240S): 124 nM
IC50 (KLE): > 10000 nM
IC50 (KPL-1, KPL-1): 1330 nM
IC50 (L-428, L-428): 330 nM
IC50 (LNCaP): 2930 nM
IC50 (LS174T, LS-174T): 170 nM
IC50 (MC-IXC): 615 nM
IC50 (MCF7, MCF7): 10.9 nM
IC50 (MDA-MB-231, MDA MB 231): 56.7 nM
IC50 (MDA-MB-436, MDA-MB-436): 49.7 nM
IC50 (MDA-MB-453, MDA MB 453): 64.5 nM
IC50 (MDA-MB-468, MDA MB 468): 4.83 nM
IC50 (MEG-01, MEG01): > 10000 nM
IC50 (MES-SA): 72 nM
IC50 (MG-63, MG-63): 96 nM
IC50 (MHH-PREB-1, MHH-PREB-1): > 10000 nM
IC50 (MIA PaCa-2, Mia PaCa-2): 158 nM
IC50 (MOLT-3, MOLT-3): 217 nM
IC50 (MOLT-16, MOLT-16): 54.2 nM
IC50 (MT-3, MT-3): 46.4 nM
IC50 (MV4-11, MV-4-11): 65.8 nM
IC50 (MX1, MX1): 294 nM
IC50 (Malme-3M, MALME3M): 265 nM
IC50 (MeWo): 249 nM
IC50 (NALM-6, NALM-6): 110 nM
IC50 (NCI-H69, NCI-H69): 144 nM
IC50 (NCI-H295R): > 10000 nM
IC50 (NCI-H441, NCIH441): 556 nM
IC50 (NCI-H446, NCIH446): 570 nM
IC50 (NCI-H460, NCI-H460): 224 nM
IC50 (NCI-H508, NCI-H508): 307 nM
IC50 (NCI-H520, NCI-H520): 15.6 nM
IC50 (NCI-H596, NCI-H596): 188 nM
IC50 (NCI-H661, NCI-H661): 152 nM
IC50 (NCI-H747, NCI-H747): 2580 nM
IC50 (OCUG-1, OCUG-1): 379 nM
IC50 (OE19, OE19): 98 nM
IC50 (OE33, OE33): 231 nM
IC50 (OVCAR-3, OVCAR3): 51.4 nM
IC50 (PANC-1, PANC-1): 165 nM
IC50 (PC-3, PC-3): 873 nM
IC50 (RD): 639 nM
IC50 (RKO): 772 nM
IC50 (RKOAS451, RKO-AS45-1): 113 nM
IC50 (RKOE6, RKOE6): 210 nM
IC50 (RL95-2, RL95-2): 218 nM
IC50 (RPMI-6666, RPMI 6666): 748 nM
IC50 (RPMI-7951, RPMI-7951): 44.2 nM
IC50 (RPMI-8226, RPMI 8226): 58.4 nM
IC50 (Raji): 24.5 nM
IC50 (Ramos, Ramos (RA 1)): 546 nM
IC50 (SAOS-2, SaOS2): 48.2 nM
IC50 (SCC-4, SCC-4): 286 nM
IC50 (SCC-9, SCC-9): 747 nM
IC50 (SCC-25, SCC-25): 273 nM
IC50 (SCaBER): 123 nM
IC50 (SH-4, SH-4): 75.2 nM
IC50 (SJRH30, SJRH30): 472 nM
IC50 (SK-BR-3, SK-BR-3): 76.4 nM
IC50 (SK-LMS-1, SK-LMS-1): 113 nM
IC50 (SK-MEL3, SK-MEL-3): 181 nM
IC50 (SK-MEL-1, SK-MEL-1): 38.7 nM
IC50 (SK-MEL-28, SK-MEL-28): 239 nM
IC50 (SK-MES-1, SKMES1): 807 nM
IC50 (SK-N-AS): 31.9 nM
IC50 (SK-N-DZ): 257 nM
IC50 (SK-N-FI): 308 nM
IC50 (SK-NEP-1, SK-NEP-1): 264 nM
IC50 (SK-OV-3, SKOV3): 52.6 nM
IC50 (SK-UT-1, SK-UT-1): 42.1 nM
IC50 (SKO-007, SKO-007): 84.4 nM
IC50 (SNB-19, SNB-19): 223 nM
IC50 (SNU1, SNU-1): 1040 nM
IC50 (SNU-16, SNU-16): 34.4 nM
IC50 (SNU-423, SNU-423): 66 nM
IC50 (SR): 275 nM
IC50 (ST486, ST486): 101 nM
IC50 (SU.86.86, SU.86.86): 934 nM
IC50 (SW13, SW-13): 211 nM
IC50 (SW48, SW48): > 10000 nM
IC50 (SW480, SW480): 413 nM
IC50 (SW579, SW579): 83.3 nM
IC50 (SW684, SW684): 1170 nM
IC50 (SW837, SW837): 102 nM
IC50 (SW872, SW872): 54 nM
IC50 (SW900, SW900): 3250 nM
IC50 (SW948, SW948): 120 nM
IC50 (SW 954, SW954): > 10000 nM
IC50 (SW1088, SW1088): 40.5 nM
IC50 (SW1353, SW1353): 129 nM
IC50 (SW1417, SW1417): 773 nM
IC50 (SW1463, SW1463): 770 nM
IC50 (SW1783, SW1783): 389 nM
IC50 (SW-403, SW403): 153 nM
IC50 (SW-620, SW620): 5640 nM
IC50 (SiHa): 2510 nM
IC50 (T47D): 52.4 nM
IC50 (T98G): 27.3 nM
IC50 (T-24, T24): 449 nM
IC50 (TCC-SUP, TCCSUP): 235 nM
IC50 (THP-1, Thp1): 80.5 nM
IC50 (U138-MG, U-138MG): 43.3 nM
IC50 (U266B1): 78.5 nM
IC50 (U-87 MG): 67.6 nM
IC50 (UMUC3, UM-UC-3): 105 nM
IC50 (WI-38, Wi38): 18.5 nM
IC50 (WiDr): 505 nM
IC50 (Y79, Y79): 113 nM
IC50 (YAPC): 168 nM
